From ChEMBL document CHEMBL2311445, “Discovery of novel inhibitors of LEDGF/p75-IN protein-protein interactions” (Bioorg Med Chem, 2013) come the findings set out here.

Activity calls are given as the source filed them. The calls are words filed in the database; no cut-off is given here.

The nature of assay [1]: Inhibition of human Flag-tagged LEDGF interaction to His6-tagged HIV1 integrase expressed in Escherichia coli BL21 (DE3) at 1000 uM preincubated for 20 mins measured after 1 hr by AlphaScreen proximity luminescent assay. On the technique in general: Alpha assays give light when donor and acceptor beads are brought close together.
For the next assay, the system named is HCT-116. As to the kind of experiment: Cytotoxicity against human HCT116 p53 +/+ and -/- cells after 72 hrs by MTT assay. Format: cell-based. The conditions noted are these: HCT-116, 72 h. Background: Tetrazolium dyes change colour on reduction, which living cells bring about.
The test system of assay [2] is Human immunodeficiency virus 1. Nature of the assay: Antiviral activity against HIV1 3B infected in human MT4 cells assessed as inhibition of virus-induced cytopathic effect by MTT assay. Format: functional, organism-based. The conditions noted are these: Human immunodeficiency virus 1, 3B. (Damage to the host cells serves as the signal in cytopathic effect assays.)

The target of assay [3] is T1, Human immunodeficiency virus type 1 integrase (Human immunodeficiency virus 1, UniProt Q7ZJM1). As to the kind of experiment: Inhibition of wild type HIV1 integrase strand transfer activity using 5'-end 32P-labeled linear oligonucleotide as substrate preincubated for 30 mins.
In assay [4] the target is T1, Human immunodeficiency virus type 1 integrase. As to the kind of experiment: Inhibition of wild type HIV1 integrase 3'-processing activity using 5'-end 32P-labeled linear oligonucleotide as substrate preincubated for 30 mins.
A short description of assay [5]: Inhibition of human Flag-tagged LEDGF interaction to His6-tagged HIV1 integrase expressed in Escherichia coli BL21 (DE3) preincubated for 20 mins measured after 1 hr by AlphaScreen proximity luminescent assay.

T1 sequence (Q7ZJM1 whole entry): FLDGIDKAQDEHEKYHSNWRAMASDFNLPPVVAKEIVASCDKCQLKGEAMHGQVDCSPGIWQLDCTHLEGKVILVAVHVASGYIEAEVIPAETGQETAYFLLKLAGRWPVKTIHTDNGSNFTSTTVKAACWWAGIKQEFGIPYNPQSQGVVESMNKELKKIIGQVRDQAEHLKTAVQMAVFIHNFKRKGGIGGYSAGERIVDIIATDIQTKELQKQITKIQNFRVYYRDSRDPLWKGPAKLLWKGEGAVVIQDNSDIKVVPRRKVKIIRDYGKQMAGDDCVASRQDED

Consider `NNC(=O)c1ccncc1`, for which, in assay [1], the inhibition entry was “inactive”.

For orientation: EC50 means the midpoint of the concentration-response curve. Read a high EC50 as lower potency in that assay. Usually IC50 stands for the concentration at which inhibition is half-maximal. Regarding `O=C(N/N=C/c1c(O)ccc2ccccc12)c1n[nH]c2c1CCC2`, the EC50 with HCT-116 is below 1 µM. In addition, the IC50 in assay [2] was above 17 µM; in assay [3] it was above 100 µM; in assay [4], above 100 µM; in assay [5], 4 µM.

Compound `CN(C)c1ccc(/N=N/c2ccc(Cl)cc2)cc1` registered an EC50 with HCT-116 above 10 µM. Besides, the IC50 in assay [2] was above 100 µM; in assay [3], above 100 µM; in assay [4], above 100 µM; in assay [5] it was 2 µM.

Turning to `CC/N=c1/scc(-c2cc(OC)ccc2OC)n1/N=C(\C)c1ccco1`, the half-maximal effective concentration (EC50) in the assay on HCT-116 was above 10 µM. For the same compound, the IC50 in assay [2] is above 60 µM; in assay [3], above 100 µM; in assay [4] it was above 100 µM; in assay [5], 8 µM.

`COCC/N=c1/scc(-c2cccs2)n1/N=C/c1cc(Br)c(O)c(OC)c1` yielded an EC50 in the assay with HCT-116 above 10 µM. Also, the IC50 in assay [2] is above 15 µM; in assay [3], above 100 µM; in assay [4], above 100 µM; in assay [5] it was 14 µM.

With `C/C(=N\N1CCN(Cc2ccccc2Cl)CC1)c1ccc([N+](=O)[O-])cc1`, in the assay with HCT-116, the concentration giving a half-maximal response (EC50) is above 10 µM. Moreover, the IC50 in assay [2] is above 100 µM; in assay [3] it was above 100 µM; in assay [4], above 100 µM; in assay [5], 19 µM.

For `COc1ccc(OC)c(/C=N/NC(=O)c2n[nH]c3c2CCC3)c1`, in the assay with HCT-116, the EC50 is above 10 µM. Besides, the 50% inhibitory concentration (IC50) in assay [2] is above 40 µM; in assay [3], above 100 µM; in assay [4], above 100 µM; in assay [5], above 50 µM.

In the assay on HCT-116, `O=C(N/N=C/c1ccccc1O)c1cnccn1` yielded a concentration for a half-maximal effect (EC50) of 9 µM. Moreover, the IC50 in assay [2] was above 40 µM; in assay [3] it was above 100 µM; in assay [4] it was above 100 µM; in assay [5], 0.4 µM.
